What was measured:
Format in all cases: cell-based
BRAF V600E = target: T1, BRAF V600E (Homo sapiens, UniProt P15056, V600E); assay: BRAF HiBiT degradation assay, C-terminal HiBiT-tagged BRAF V600E A375 cells (clone 1F10), Nano-Glo HiBiT Lytic assay; conditions: for Dmax: A-375
T1 construct: endogenous C-terminal HiBiT fusion tag on BRAF V600E allele; endogenous in cells; host or cells: A375 clone 1F10 (CRISPR-Cas9 knock-in of the HiBiT tag; parental A375 from ATCC)
How it was run: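 Endogenous BRAF V600E-HiBiT A375 (1F10), 10,000 cells/well, 24 h preculture; cpd 11-pt, 1 μM–0.01 nM half-log, n=2, 0.2% DMSO; HiBiT lytic detection 10 min RT; DC50 = fitted conc at Y=50; Obs. Dmax vs DMSO.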

BRAF G466V = target: T2, BRAF G466V (Homo sapiens, UniProt P15056, G466V); assay: BRAF HiBiT degradation assay, C-terminal HiBiT-tagged BRAF G466V overexpressed in HCT-116 BRAF−/− cells (clone 8), Nano-Glo HiBiT Lytic assay
T2 construct: Horizon Discovery (HCT-116 BRAF−/− cells); host or cells: HCT-116 BRAF−/− cells, clone 8, lentiviral transduction
T2 sequence (P15056 whole entry G466V): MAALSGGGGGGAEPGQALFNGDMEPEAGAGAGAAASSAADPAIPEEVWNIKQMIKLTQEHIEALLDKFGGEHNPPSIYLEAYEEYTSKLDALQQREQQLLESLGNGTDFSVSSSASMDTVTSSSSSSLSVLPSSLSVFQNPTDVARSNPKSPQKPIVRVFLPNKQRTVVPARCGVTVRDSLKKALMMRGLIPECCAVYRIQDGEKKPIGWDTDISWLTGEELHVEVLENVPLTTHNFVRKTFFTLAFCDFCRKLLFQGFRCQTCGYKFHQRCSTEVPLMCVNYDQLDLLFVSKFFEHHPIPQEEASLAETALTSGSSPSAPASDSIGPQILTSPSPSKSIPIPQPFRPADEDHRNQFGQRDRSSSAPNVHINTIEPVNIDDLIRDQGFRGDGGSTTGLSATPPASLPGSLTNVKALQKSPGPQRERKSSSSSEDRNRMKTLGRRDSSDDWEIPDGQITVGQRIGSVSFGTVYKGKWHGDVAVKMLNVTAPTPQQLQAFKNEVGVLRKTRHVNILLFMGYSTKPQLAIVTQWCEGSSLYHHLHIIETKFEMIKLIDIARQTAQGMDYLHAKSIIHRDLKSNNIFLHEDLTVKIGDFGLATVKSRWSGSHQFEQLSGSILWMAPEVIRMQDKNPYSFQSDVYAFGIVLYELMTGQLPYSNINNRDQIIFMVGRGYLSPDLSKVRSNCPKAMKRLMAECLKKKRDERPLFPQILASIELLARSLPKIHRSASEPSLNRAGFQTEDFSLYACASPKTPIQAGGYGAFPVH
How it was run: (§1)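 Luminescence from the lytic HiBiT reagent, read after 10 min at room temperature, measured tagged BRAF remaining in lentivirally transduced HCT-116 BRAF−/− cells. Compounds were tested from 1 μM to 0.01 nM in half-log steps at 0.2% DMSO. DC50 values were fitted at 50% remaining.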

BRAF G469A = target: T3, BRAF G469A (Homo sapiens, UniProt P15056, G469A); assay: BRAF HiBiT degradation assay, C-terminal HiBiT-tagged BRAF G469A overexpressed in HCT-116 BRAF−/− cells (clone 34), Nano-Glo HiBiT Lytic assay
T3 construct: Horizon Discovery (HCT-116 BRAF−/− cells); host or cells: HCT-116 BRAF−/− cells, clone 34, lentiviral transduction
T3 sequence (P15056 whole entry G469A): as the sequence (P15056 whole entry G466V) above, with V466G, G469A counted along it
How it was run: as §1

BRAF D594G = target: T4, BRAF D594G (Homo sapiens, UniProt P15056, D594G); assay: BRAF HiBiT degradation assay, C-terminal HiBiT-tagged BRAF D594G overexpressed in HCT-116 BRAF−/− cells (clone 63), Nano-Glo HiBiT Lytic assay
T4 construct: Horizon Discovery (HCT-116 BRAF−/− cells); host or cells: HCT-116 BRAF−/− cells, clone 63, lentiviral transduction
T4 sequence (P15056 whole entry D594G): as the sequence (P15056 whole entry G466V) above, with V466G, D594G counted along it
How it was run: as §1

[1] = A375 (BRAF V600E), DC50 at 50%: fitted conc. at Y=50
[2] = A375 (BRAF V600E), percentage protein degraded at maximal compound effect relative to DMSO
[3] = BRAF G466V, DC50 at 50%: fitted conc. at Y=50
[4] = HCT-116, BRAF G466V, percentage protein degraded at maximal compound effect relative to DMSO
[5] = Class 2, BRAF G469A, DC50 at 50%: fitted conc. at Y=50
[6] = HCT-116, Class 2, BRAF G469A, percentage protein degraded at maximal compound effect relative to DMSO
[7] = BRAF D594G, DC50 at 50%: fitted conc. at Y=50
[8] = HCT-116, BRAF D594G, percentage protein degraded at maximal compound effect relative to DMSO
[9] = A375 (BRAF V600E, Class 1), DC50 at 50% degradation
[10] = A375 (BRAF V600E, Class 1), observed Dmax, % protein degraded relative to DMSO control
[11] = BRAF G466V (Class 3), HCT-116 BRAF−/− cells, DC50 at 50% degradation
[12] = BRAF G466V (Class 3), HCT-116 BRAF−/− cells, observed Dmax relative to DMSO control
[13] = BRAF G469A (Class 2), HCT-116 BRAF−/− cells, DC50 at 50% degradation
[14] = BRAF G469A (Class 2), HCT-116 BRAF−/− cells, observed Dmax relative to DMSO control
[15] = BRAF D594G (Class 3), HCT-116 BRAF−/− cells, DC50 at 50% degradation
[16] = BRAF D594G (Class 3), HCT-116 BRAF−/− cells, observed Dmax relative to DMSO control

T1 sequence (P15056 whole entry V600E, the tested form may be a part): as the sequence (P15056 whole entry G466V) above, with V466G, V600E counted along it

Row | Compound | DC50 (BRAF V600E; [1]) [nM] | Dmax (BRAF V600E; [2]) [%] | DC50 (BRAF G466V; [3]) [nM] | Dmax (BRAF G466V; [4]) [%] | DC50 (BRAF G469A; [5]) [nM] | Dmax (BRAF G469A; [6]) [%] | DC50 (BRAF D594G; [7]) [nM] | Dmax (BRAF D594G; [8]) [%] | DC50 (BRAF V600E; [9]) [nM] | Dmax (BRAF V600E; [10]) [%] | DC50 (BRAF G466V; [11]) [nM] | Dmax (BRAF G466V; [12]) [%] | DC50 (BRAF G469A; [13]) [nM] | Dmax (BRAF G469A; [14]) [%] | DC50 (BRAF D594G; [15]) [nM] | Dmax (BRAF D594G; [16]) [%]
1 | CCCS(=O)(=O)Nc1cccc(-c2nc(C3(C)CCN(C(=O)C4CCN(CC5CCN(c6ccc(C7CCC(=O)NC7=O)cc6)CC5)CC4)CC3)sc2-c2ccnc(N)n2)c1F (racemic) [Compound 227, Rac-N-{3-[5-(2-aminopyrimidin-4-yl)-2-(1-{1-[(1-{4-[(3R)-2,6-dioxopiperidin-3-yl]phenyl}piperidin-4-yl)methyl]piperidine-4-carbonyl}-4-methylpiperidin-4-yl)-1,3-thiazol-4-yl]-2-fluorophenyl}propane-1-sulfonamide] | < 10 | > 70 | > 500 | 30 to 70 | > 500 | 30 to 70 | > 500 | 30 to 70 |  |  |  |  |  |  |  | 
2 | O=C1CCC(c2cc(F)c(N3CCC(CN4CCN(c5ccc(-n6cc(-c7cc(Cl)cc(NS(=O)(=O)N8CCCC8)c7F)c(-c7ccncc7)n6)cc5)CC4)CC3)cc2F)C(=O)N1 (racemic) [Compound 386, Rac-N-{5-chloro-3-[1-(4-{4-[(1-{4-[(3R)-2,6-dioxopiperidin-3-yl]-2,5-difluorophenyl}piperidin-4-yl)methyl]piperazin-1-yl}phenyl)-3-(pyridin-4-yl)-1H-pyrazol-4-yl]-2-fluorophenyl}pyrrolidine-1-sulfonamide] |  |  |  |  |  |  |  |  | 10 to 50 | > 70 | 10 to 50 | > 70 | 50 to 500 | 30 to 70 | 10 to 50 | 30 to 70
3 | O=C1CCC(c2ccc(N3CCC(CN4CCN(c5ccc(-n6cc(-c7cc(Cl)cc(NS(=O)(=O)N8CCCC8)c7F)c(-c7ccncc7)n6)cc5)CC4)CC3)cc2F)C(=O)N1 (racemic) [Compound 348, Rac-N-{5-chloro-3-[1-(4-{4-[(1-{4-[(3R)-2,6-dioxopiperidin-3-yl]-3-fluorophenyl}piperidin-4-yl)methyl]piperazin-1-yl}phenyl)-3-(pyridin-4-yl)-1H-pyrazol-4-yl]-2-fluorophenyl}pyrrolidine-1-sulfonamide] |  |  |  |  |  |  |  |  | < 10 | > 70 | < 10 | > 70 | 10 to 50 | 30 to 70 | < 10 | 30 to 70
4 | CCCS(=O)(=O)Nc1cccc(-c2nc(C3CCC4(CC3)CCN(C(=O)CCCCCc3ccc5c(c3)C(=O)N(C3CCC(=O)NC3=O)C5)CC4)sc2-c2ccnc(N)n2)c1F (racemic) [Compound 235, Rac-N-{3-[5-(2-aminopyrimidin-4-yl)-2-[3-(6-{2-[(3R)-2,6-dioxopiperidin-3-yl]-3-oxo-2,3-dihydro-1H-isoindol-5-yl}hexanoyl)-3-azaspiro[5.5]undecan-9-yl]-1,3-thiazol-4-yl]-2-fluorophenyl}propane-1-sulfonamide] | < 10 | > 70 | > 500 | 30 to 70 | > 500 | 30 to 70 | > 500 | 30 to 70 |  |  |  |  |  |  |  | 
5 | CCCS(=O)(=O)Nc1cccc(-c2nc(C(C)(C)C)sc2-c2ccnc(Nc3cnn(C4CCN(CC5CCN(c6ccc(C(=O)N[C@@H]7CCC(=O)NC7=O)nc6)CC5)CC4)c3)n2)c1F [Compound 67, 5-{4-[(4-{4-[(4-{2-tert-butyl-4-[2-fluoro-3-(propane-1-sulfonamido)phenyl]-1,3-thiazol-5-yl}pyrimidin-2-yl)amino]-1H-pyrazol-1-yl}piperidin-1-yl)methyl]piperidin-1-yl}-N-[(3R)-2,6-dioxopiperidin-3-yl]pyridine-2-carboxamide] | < 10 | 30 to 70 | > 500 | < 30 | > 500 | < 30 | > 500 | 30 to 70 |  |  |  |  |  |  |  | 
6 | C[C@@H]1CN(c2ccc(-n3cc(-c4cc(Cl)cc(NS(=O)(=O)N5CC[C@@H](F)C5)c4F)c(-c4ccncc4)n3)cc2)CCN1CC1CCN(c2ccc([C@H]3CCC(=O)NC3=O)cc2)CC1 [Compound 317, (3R)—N-[5-chloro-3-(1-{4-[(3R)-4-[(1-{4-[(3R)-2,6-dioxopiperidin-3-yl]phenyl}piperidin-4-yl)methyl]-3-methylpiperazin-1-yl]phenyl}-3-(pyridin-4-yl)-1H-pyrazol-4-yl)-2-fluorophenyl]-3-fluoropyrrolidine-1-sulfonamide] |  |  |  |  |  |  |  |  | < 10 | > 70 | < 10 | > 70 | < 10 | > 70 | < 10 | 30 to 70
7 | CCCS(=O)(=O)Nc1cccc(-c2nc(C3CCC4(CC3)CCN(CC3CCN(c5ccc6c(c5)CN(C5CCC(=O)NC5=O)C6=O)CC3)CC4)sc2-c2ccnc(N)n2)c1F (racemic) [Compound 258, Rac-N-{3-[5-(2-aminopyrimidin-4-yl)-2-{3-[(1-{2-[(3R)-2,6-dioxopiperidin-3-yl]-1-oxo-2,3-dihydro-1H-isoindol-5-yl}piperidin-4-yl)methyl]-3-azaspiro[5.5]undecan-9-yl}-1,3-thiazol-4-yl]-2-fluorophenyl}propane-1-sulfonamide] |  |  |  |  |  |  |  |  | < 10 | 30 to 70 | > 500 | 30 to 70 | > 500 | < 30 | > 500 | < 30
8 | CCCS(=O)(=O)Nc1cccc(-c2nc(C(C)(C)C)sc2-c2ccnc(Nc3ccc(C4CCN(CC5CCN(c6ccc(C7CCC(=O)NC7=O)cn6)CC5)CC4)cc3)n2)c1F (racemic) [Compound 35, Rac-N-[3-(2-tert-butyl-5-{2-[(4-{1-[(1-{5-[(3R)-2,6-dioxopiperidin-3-yl]pyridin-2-yl}piperidin-4-yl)methyl]piperidin-4-yl}phenyl)amino]pyrimidin-4-yl}-1,3-thiazol-4-yl)-2-fluorophenyl]propane-1-sulfonamide] | < 10 | > 70 | > 500 | 30 to 70 | 10 to 50 | < 30 | > 500 | 30 to 70 |  |  |  |  |  |  |  | 
9 | O=C1CCN(c2ccc(N3CCC(CN4CCN(c5ccc(-n6cc(-c7cc(Cl)cc(NS(=O)(=O)N8CC(F)C8)c7F)c(-c7ccncc7)n6)cc5)CC4)CC3)nc2)C(=O)N1 [Compound 368, N-[5-chloro-3-(1-{4-[4-({1-[5-(2,4-dioxo-1,3-diazinan-1-yl)pyridin-2-yl]piperidin-4-yl}methyl)piperazin-1-yl]phenyl}-3-(pyridin-4-yl)-1H-pyrazol-4-yl)-2-fluorophenyl]-3-fluoroazetidine-1-sulfonamide] |  |  |  |  |  |  |  |  | < 10 | > 70 | < 10 | 30 to 70 | 10 to 50 | 30 to 70 | < 10 | 30 to 70
10 | CCCS(=O)(=O)Nc1cccc(-c2nc(-c3ccc(C4CCN(C(=O)CC5CCN(c6ccc(C7CCC(=O)NC7=O)cn6)CC5)CC4)cc3)sc2-c2ccnc(N)n2)c1F (racemic) [Compound 207, Rac-N-{3-[5-(2-aminopyrimidin-4-yl)-2-(4-{1-[2-(1-{5-[(3R)-2,6-dioxopiperidin-3-yl]pyridin-2-yl}piperidin-4-yl)acetyl]piperidin-4-yl}phenyl)-1,3-thiazol-4-yl]-2-fluorophenyl}propane-1-sulfonamide] | 10 to 50 | > 70 | > 500 | 30 to 70 | > 500 | 30 to 70 | > 500 | 30 to 70 |  |  |  |  |  |  |  | 
